Among the data in the NIST ThermoML archive (doi:10.1016/j.jct.2016.01.012) are refractive index, viscosity and electrical conductivity values, retold here.

SMILES strings stand for the structures. Numbers after ± are expanded uncertainties.

A short description of data set [1]: refractive index (Na D-line) (dimensionless). As to conditions: 298.15 K; 100 kPa; Liquid; Standard Abbe refractometry.
Data set [2] can be described thus: xn = mol fraction of the nth substance listed. The conditions noted are these: 100 kPa, Liquid; for viscosity: Falling or rolling sphere viscometry, x2 = 0; for electrical conductivity: Direct current cell with electrodes.
Data set [3] is described as follows: refractive index (Na D-line) (dimensionless); xn = mol fraction of the nth substance listed. As to conditions: 298.15 K, 100 kPa, Liquid, Standard Abbe refractometry.
The conditions of data set [4]: 100 kPa, Liquid; for viscosity: Falling or rolling sphere viscometry.

In general, refractive index refers to the speed of light in vacuum divided by its phase velocity in the sample. As a reminder, the viscosity is the internal friction of a fluid under shear.

For `CCCO` [propan-1-ol], the refractive index in data set [1] is on record as 1.3836 ± 0.0005.

For `O` [water] + CN(C)C(=[NH2+])N(C)C.c1c[n-]cn1, the viscosity in data set [2] (293.15 K) came out at 0.997 ± 0.041 mPa·s; in data set [2] (298.15 K), 0.886 ± 0.036 mPa·s; in data set [2] (303.15 K), 0.799 ± 0.033 mPa·s; in data set [2] (308.15 K) it was 0.726 ± 0.03 mPa·s; in data set [2] (313.15 K), 0.665 ± 0.027 mPa·s. For the same compound, the refractive index in data set [3] (x2 = 0) is recorded as 1.3331 ± 0.0005.

Take `CCCCO` [butan-1-ol] + CN(C)C(=[NH2+])N(C)C.c1c[n-]cn1: the refractive index in data set [3] (x2 = 0) is 1.3975 ± 0.0005.

As to `CN(C)C(=[NH2+])N(C)C.c1c[n-]cn1` [1,1,3,3-tetramethylguanidinium imidazol-1-ide] + CCCO, the refractive index in data set [3] (x1 = 0.0499) worked out at 1.3969 ± 0.0006; in data set [3] (x1 = 0.0999), 1.4086 ± 0.0005; in data set [3] (x1 = 0.2002) it was 1.428 ± 0.0005; in data set [3] (x1 = 0.2996) it was 1.4423 ± 0.0005; in data set [3] (x1 = 0.4002) it was 1.4545 ± 0.0005; in data set [3] (x1 = 0.4988), 1.4642 ± 0.0005. Besides, the refractive index in data set [3] (x1 = 0.6264) was 1.4742 ± 0.0006; in data set [3] (x1 = 0.8001), 1.4848 ± 0.0006; in data set [3] (x1 = 0.9006), 1.4895 ± 0.0006; in data set [3] (x1 = 1), 1.4943 ± 0.0006.

For the compound `CCCCO` [butan-1-ol], the refractive index in data set [1] amounted to 1.3975 ± 0.0005.

Turning to `CO` [methanol] + CN(C)C(=[NH2+])N(C)C.c1c[n-]cn1, in data set [3] (x2 = 0), the refractive index came to 1.3267 ± 0.0005.

`CCO` [ethanol]: the refractive index in data set [1] is on record as 1.3598 ± 0.0005.

In the case of `CO` [methanol], in data set [1], the refractive index came out at 1.3267 ± 0.0005.

For the compound `CN(C)C(=[NH2+])N(C)C.c1c[n-]cn1` [1,1,3,3-tetramethylguanidinium imidazol-1-ide] + CO, the refractive index in data set [3] (x1 = 0.0501) was determined as 1.3631 ± 0.0008; in data set [3] (x1 = 0.1005), 1.389 ± 0.0006; in data set [3] (x1 = 0.1957), 1.4222 ± 0.0006; in data set [3] (x1 = 0.2953) it was 1.4423 ± 0.0005; in data set [3] (x1 = 0.393) it was 1.4577 ± 0.0005; in data set [3] (x1 = 0.5005), 1.4688 ± 0.0005. The refractive index was determined as 1.4791 ± 0.0006 in data set [3] (x1 = 0.6431), 1.4865 ± 0.0006 in data set [3] (x1 = 0.7815), 1.4915 ± 0.0006 in data set [3] (x1 = 0.8994) and 1.4943 ± 0.0006 in data set [3] (x1 = 1).

Take `CN(C)C(=[NH2+])N(C)C.c1c[n-]cn1` [1,1,3,3-tetramethylguanidinium imidazol-1-ide]: the refractive index in data set [1] was 1.4943 ± 0.0006. Also, in data set [4] (298.15 K, Direct current cell with electrodes), the electrical conductivity stood at 0.218 ± 0.002 S/m.

In the case of `CN(C)C(=[NH2+])N(C)C.c1c[n-]cn1` [1,1,3,3-tetramethylguanidinium imidazol-1-ide] + CCO, the electrical conductivity in data set [2] (298.15 K, x1 = 0.01) came to 0.0131 ± 0.001 S/m; in data set [2] (298.15 K, x1 = 0.0299) it was 0.0337 ± 0.001 S/m; in data set [2] (298.15 K, x1 = 0.0897) it was 0.092 ± 0.0013 S/m; in data set [2] (298.15 K, x1 = 0.1197), 0.12 ± 0.0014 S/m; in data set [2] (298.15 K, x1 = 0.1499), 0.139 ± 0.0015 S/m; in data set [2] (298.15 K, x1 = 0.1797), 0.16 ± 0.0017 S/m. In addition, the electrical conductivity is 0.166 ± 0.0017 S/m in data set [2] (298.15 K, x1 = 0.2001); 0.173 ± 0.0018 S/m in data set [2] (298.15 K, x1 = 0.2195); 0.179 ± 0.0018 S/m in data set [2] (298.15 K, x1 = 0.2398); 0.185 ± 0.0019 S/m in data set [2] (298.15 K, x1 = 0.2602); 0.199 ± 0.002 S/m in data set [2] (298.15 K, x1 = 0.2996); 0.213 ± 0.002 S/m in data set [2] (298.15 K, x1 = 0.3995). Further, the electrical conductivity came out at 0.221 ± 0.002 S/m in data set [2] (298.15 K, x1 = 0.5); 0.227 ± 0.002 S/m in data set [2] (298.15 K, x1 = 0.6467); 0.229 ± 0.002 S/m in data set [2] (298.15 K, x1 = 0.801); 0.223 ± 0.002 S/m in data set [2] (298.15 K, x1 = 0.8996); 0.218 ± 0.002 S/m in data set [2] (298.15 K, x1 = 1). In addition, the refractive index worked out at 1.3799 ± 0.0006 in data set [3] (x1 = 0.0483); 1.3983 ± 0.0006 in data set [3] (x1 = 0.0999); 1.4242 ± 0.0006 in data set [3] (x1 = 0.2003); 1.4405 ± 0.0005 in data set [3] (x1 = 0.3001); 1.4547 ± 0.0005 in data set [3] (x1 = 0.3999); 1.4652 ± 0.0006 in data set [3] (x1 = 0.5). Also, the refractive index in data set [3] (x1 = 0.643) came to 1.4762 ± 0.0006; in data set [3] (x1 = 0.7966), 1.4854 ± 0.0006; in data set [3] (x1 = 0.8987), 1.4903 ± 0.0006; in data set [3] (x1 = 1), 1.4943 ± 0.0006.

Turning to `CCO` [ethanol] + CN(C)C(=[NH2+])N(C)C.c1c[n-]cn1, in data set [3] (x2 = 0), the refractive index was 1.3598 ± 0.0005.

In the case of `CN(C)C(=[NH2+])N(C)C.c1c[n-]cn1` [1,1,3,3-tetramethylguanidinium imidazol-1-ide] + CCCCO, the refractive index in data set [3] (x1 = 0.0499) amounted to 1.4074 ± 0.0005; in data set [3] (x1 = 0.1004), 1.4159 ± 0.0005; in data set [3] (x1 = 0.1999) it was 1.4316 ± 0.0005; in data set [3] (x1 = 0.2997) it was 1.4443 ± 0.0005; in data set [3] (x1 = 0.3985), 1.4545 ± 0.0005; in data set [3] (x1 = 0.4997), 1.4641 ± 0.0005. The refractive index stood at 1.4748 ± 0.0006 in data set [3] (x1 = 0.6499), 1.4839 ± 0.0006 in data set [3] (x1 = 0.8002), 1.4888 ± 0.0006 in data set [3] (x1 = 0.9004) and 1.4943 ± 0.0006 in data set [3] (x1 = 1).

Turning to `O` [water], in data set [1], the refractive index is 1.3331 ± 0.0005. Moreover, the viscosity in data set [4] (293.15 K) is given as 0.997 ± 0.041 mPa·s; in data set [4] (298.15 K), 0.886 ± 0.036 mPa·s; in data set [4] (303.15 K) it was 0.799 ± 0.033 mPa·s; in data set [4] (308.15 K) it was 0.726 ± 0.03 mPa·s; in data set [4] (313.15 K) it was 0.665 ± 0.027 mPa·s.

As to `CCCO` [propan-1-ol] + CN(C)C(=[NH2+])N(C)C.c1c[n-]cn1, the refractive index in data set [3] (x2 = 0) came to 1.3836 ± 0.0005.
